Measurements as given in PMC9782603 (Viruses, 2022).
Where two headings read alike, the source gives them in different places.

Key:
[1] = tested on: HCV GT 1b subgenomic reporter replicon (strain Con1); experiment: HCV GT 1b subgenomic replicon luciferase antiviral assay in Huh5-2 cells; type: cell-based; settings: Hepatitis C virus, GT1B, Huh-5-2, 72 h, read-out: EC50 HCV Replicon 1b
[2] = tested on: HCV GT 4a (strain ED43) replicon; experiment: HCV GT 4a subgenomic replicon luciferase antiviral assay in Huh7.5-4a cells; type: cell-based; settings: Hepatitis C virus, GT4A, 72 h, read-out: EC50 HCV Replicon 4a
[3] = tested on: HCV GT 3a (strain S52) replicon; experiment: HCV GT 3a subgenomic replicon luciferase antiviral assay in Huh7.5-3a cells; type: cell-based; settings: Hepatitis C virus, GT3A, 72 h, read-out: EC50 HCV Replicon 3a
[4] = alamarBlue reduction cytotoxicity assay in replicon cells; type: cell-based; settings: human, HCV Replicon 1b cells
[5] = tested on: NS5B; settings: cited from earlier work
[6] = tested on: HCV GT-1b replicon; settings: HCV GT-1b replicon luciferase reporter assay (n ≥ 2); cited from earlier work
[7] = tested on: HCV GT 2a; experiment: Activity against HCV GT 2a (data not shown); type: cell-based
[8] = Huh7.5-4a, GT 4a (ED43), F-Luc, 3 days
[9] = Huh7.5-3a, GT 3a (S52), F-Luc, 3 days
[10] = Huh5-2, GT 1b (Con1), F-Luc, 3 days
[11] = reported NS5B TP-2 inhibitors, Figure 1

Compound	melting point	EC50 [1]	EC50 [2, 8]	EC50 [3, 9]	CC50 at 3 days [4]	IC50 ([5]; enzymatic assays)	EC50 [1, 10]	EC50 [6]	IC50 [5, 11]	activity against GT 2a [7]	EC50 [2]	EC50 [3]
Cc1cccc(-n2c(C)nc(=O)c3cc([N+](=O)[O-])ccc32)c1 [8b, 2-Methyl-6-nitro-1-(m-tolyl)quinazolin-4(1H)-one]	258 to 260 °C	> 10 µM	> 10 µM	> 10 µM	151 ± 5.41 µM							
CCc1ccc(/C=C2\SC(N[C@H](C(=O)O)c3ccc(F)cc3)=NC2=O)o1 [III]						3 µM						
O=C(CCl)Nc1ccc2c(c1)c(=O)ncn2-c1ccccc1 [6a, 2-Chloro-N-(4-oxo-1-phenyl-1,4-dihydroquinazolin-6-yl)acetamide]	< 300 °C		> 10 µM	> 10 µM	104.2 ± 0.03 µM		> 10 µM					
CC1CCC(C(=O)N(c2ccc(Oc3ncccc3C(F)(F)F)cc2C(=O)O)C(C)C)CC1 (centres unmarked) [VI]								0.095 µM	0.08 µM			
Cc1cccc(Nc2ccc([N+](=O)[O-])cc2C(N)=O)c1 [3b, 5-Nitro-2-(m-tolylamino) benzamide]	188 to 190 °C		> 10 µM	> 10 µM	161.3 ± 0.07 µM		> 10 µM					
Cc1cccc(-n2c(C)nc(=O)c3cc(NC(=O)COc4ccc(Cl)cc4)ccc32)c1 [11e, 2-(4-Chlorophenoxy)-N-(2-methyl-4-oxo-1-(m-tolyl)-1,4-dihydroquinazolin-6-yl)acetamide]	283 °C		15.2 ± 0.29 µM	8.4 ± 0.15 µM	36.6 ± 4.19 µM		6.24 ± 0.04 µM			no activity		
Cc1ccc(OCC(=O)Nc2ccc3c(c2)c(=O)ncn3-c2cccc(C)c2)cc1 [7d, N-(4-oxo-1-(m-tolyl)-1,4-dihydroquinazolin-6-yl)-2-(p-tolyloxy)acetamide]	206 °C		> 10 µM	> 10 µM	50.1 ± 1.77 µM		> 10 µM					
COC(=O)N[C@H](C(=O)N1CCC[C@H]1c1nc(-c2ccc(-c3ccc(-c4c[nH]c([C@@H]5CCCN5C(=O)[C@@H](NC(=O)OC)C(C)C)n4)cc3)cc2)c[nH]1)C(C)C [Daclatasvir, reference compound]					17.7 µM		2.66e-05 µM				0.008 ± 0.001 µM	2.12e-05 µM
Nc1ccc2c(c1)c(=O)ncn2-c1ccccc1 [5a, 6-Amino-1-phenylquinazolin-4(1H)-one]	293 to 295 °C		> 10 µM	> 10 µM	> 200 µM		9.84 ± 0.57 µM					
O=C(COc1ccc(Cl)cc1)Nc1ccc2c(c1)c(=O)ncn2-c1ccccc1 [7b, 2-(4-Chlorophenoxy)-N-(4-oxo-1-phenyl-1,4-dihydroquinazolin-6-yl)acetamide]	262 °C		> 10 µM	> 10 µM	154 ± 3.71 µM		> 10 µM					
Cc1cccc(-n2cnc(=O)c3cc([N+](=O)[O-])ccc32)c1 [4b, 6-Nitro-1-(m-tolyl)quinazolin-4(1H)-one]	185 °C		> 10 µM	> 10 µM	64.9 ± 0.03 µM		> 10 µM					
Cc1nc(=O)c2cc(NC(=O)CCl)ccc2n1-c1ccccc1 [10a, 2-Chloro-N-(2-methyl-4-oxo-1-phenyl-1,4-dihydroquinazolin-6-yl)acetamide]	285 °C		> 10 µM	> 10 µM	87.47 ± 0.24 µM		> 10 µM					
Cc1cccc(-n2cnc(=O)c3cc(NC(=O)CCl)ccc32)c1 [6b, 2-Chloro-N-(4-oxo-1-(m-tolyl)-1,4-dihydroquinazolin-6-yl)acetamide]	290 °C		> 10 µM	> 10 µM	143 ± 14.2 µM		> 10 µM					
Cc1ccc(OCC(=O)Nc2ccc3c(c2)c(=O)ncn3-c2ccccc2)cc1 [7a, N-(4-Oxo-1-phenyl-1,4-dihydroquinazolin-6-yl)-2-(p-tolyloxy)acetamide]	220 °C		> 10 µM	> 10 µM	84.7 ± 14 µM		> 10 µM					
NC(=O)c1cc([N+](=O)[O-])ccc1Nc1ccccc1 [3a, 5-nitro-2-(phenylamino)benzamide]			> 10 µM	> 10 µM	70.69 ± 0.04 µM		> 10 µM					
Cc1ccc(OCC(=O)Nc2ccc3c(c2)c(=O)nc(C)n3-c2cccc(C)c2)cc1 [11d, N-(2-Methyl-4-oxo-1-(m-tolyl)-1,4-dihydroquinazolin-6-yl)-2-(p-tolyloxy)acetamide]	270 °C		> 10 µM	> 10 µM	22.7 ± 2.23 µM		> 1 µM					
O=c1ncn(Cc2c(F)cc(F)cc2F)c2ccc(Oc3cccc(-c4ccccn4)c3C(F)(F)F)cc12 [VIII]								0.31 µM				

Compound	melting point	EC50 [1]	EC50 [2, 8]	EC50 [3, 9]	CC50 at 3 days [4]	IC50 ([5]; enzymatic assays)	EC50 [1, 10]	EC50 [6]	IC50 [5, 11]	activity against GT 2a [7]	EC50 [2]	EC50 [3]
Cc1cccc(-n2cnc(=O)c3cc(NC(=O)COc4ccc(Cl)cc4)ccc32)c1 [7e, 2-(4-Chlorophenoxy)-N-(4-oxo-1-(m-tolyl)-1,4-dihydroquinazolin-6-yl)acetamide]	255 °C		> 10 µM	> 10 µM	47.6 ± 5.56 µM		> 10 µM					
Cc1cccc(Nc2ccc([N+](=O)[O-])cc2C(=O)O)c1 [1b, 5-nitro-2-(m-tolylamino)benzoic acid]			> 10 µM	> 10 µM	> 200 µM		> 10 µM					
O=c1ncn(-c2ccccc2)c2ccc([N+](=O)[O-])cc12 [4a, 6-Nitro-1-phenylquinazolin-4(1H)-one]	246 to 248 °C		> 10 µM	> 10 µM	> 200 µM		> 10 µM					
O=C(O)c1cc([N+](=O)[O-])ccc1Nc1ccccc1 [1a, 5-nitro-2-(phenylamino)-benzoic acid]			> 10 µM	> 10 µM	> 200 µM		> 10 µM					
Cc1cccc(-n2c(C)nc(=O)c3cc(NC(=O)CCl)ccc32)c1 [10b, 2-Chloro-N-(2-methyl-4-oxo-1-(m-tolyl)-1,4-dihydroquinazolin-6-yl)acetamide]	280 °C		> 10 µM	> 10 µM	177.2 ± 0.03 µM		> 10 µM					
CC1CCC(C(=O)N(c2cc(-c3ccccc3)sc2C(=O)O)C(C)C)CC1 (centres unmarked) [IV]									0.028 µM			
Cc1nc(=O)c2cc(N)ccc2n1-c1ccccc1 [9a, 6-Amino-2-methyl-1-phenylquinazolin-4(1H)-one]	268 to 270 °C	> 10 µM	> 10 µM	> 10 µM	> 200 µM							
Cc1cc(OCC(=O)Nc2ccc3c(c2)c(=O)nc(C)n3-c2ccccc2)ccc1Cl [11c, 2-(4-Chloro-3-methylphenoxy)-N-(2-methyl-4-oxo-1-phenyl-1,4-dihydroquinazolin-6-yl)acetamide]	271 °C		> 10 µM	> 10 µM	> 200 µM		> 10 µM					
Cc1cccc(-n2cnc(=O)c3cc(NC(=O)COc4ccc(Cl)c(C)c4)ccc32)c1 [7f, 2-(4-Chloro-3-methylphenoxy)-N-(4-oxo-1-(m-tolyl)-1,4-dihydroquinazolin-6-yl)acetamide]	269 °C		> 10 µM	> 10 µM	105 ± 10.3 µM		> 10 µM					
Cc1cccc(-n2c(C)nc(=O)c3cc(NC(=O)COc4ccc(Cl)c(C)c4)ccc32)c1 [11f, 2-(4-Chloro-3-methylphenoxy)-N-(2-methyl-4-oxo-1-(m-tolyl)-1,4-dihydroquinazolin-6-yl)acetamide]	290 °C		> 10 µM	> 10 µM	27.4 ± 2.71 µM		> 1 µM					
Cc1ccc(S(=O)(=O)Nc2ccc(Oc3ccccc3)cc2C(=O)O)cc1 [V]								> 30 µM	0.22 µM			
Cc1cccc(-n2cnc(=O)c3cc(N)ccc32)c1 [5b, 6-Amino-1-(m-tolyl)quinazolin-4(1H)-one]	288 to 290 °C		> 10 µM	> 10 µM	> 200 µM		> 10 µM					
Cc1cccc(-n2c(C)nc(=O)c3cc(N)ccc32)c1 [9b, 6-Amino-2-methyl-1-(m-tolyl)quinazolin-4(1H)-one]	270 to 273 °C		> 10 µM	> 10 µM	> 200 µM		> 10 µM					
Cc1ccc(S(=O)(=O)Nc2cc(-c3ccc(F)cc3)sc2C(=O)O)cc1 [I]									0.29 µM			
Cc1cc(OCC(=O)Nc2ccc3c(c2)c(=O)ncn3-c2ccccc2)ccc1Cl [7c, 2-(4-Chloro-3-methylphenoxy)-N-(4-oxo-1-phenyl-1,4-dihydroquinazolin-6-yl)acetamide]	255 °C		> 10 µM	> 10 µM	75.2 ± 9.24 µM		> 10 µM					
Cc1nc(=O)c2cc([N+](=O)[O-])ccc2n1-c1ccccc1 [8a, 2-Methyl-6-nitro-1-phenylquinazolin-4(1H)-one]	260 to 262 °C	> 10 µM	> 10 µM	> 10 µM	> 200 µM							
